# Tests used:
# PI3K gamma = molecular target: T1, PI3K gamma (Homo sapiens, UniProt P48736); test: PI3K gamma kinase assay (Kinase-Glo luminescence); assay type: biochemical
# T1 construct: His tag (C); made in house; host or cells: baculovirus (pVL1393); Tn5 or TiniPro insect cells; construct from Roger Williams lab, MRC LMB
# Method in brief: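 PI3Kγ (150 nM) reaction run 120 min at room temperature with phosphatidylinositol substrate (10 μg/mL) and ATP (1 μM) in Tris pH 7.5 buffer containing MgCl2, NaCl, CHAPS and DTT. Remaining ATP detected by Kinase-Glo luminescence; 8 concentrations per compound, IC50 from 4-parameter curve fitting.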
# PI3K alpha = molecular target: T2, PI3K alpha (Homo sapiens, UniProt P42336); test: PI3K alpha kinase assay (Kinase-Glo luminescence); assay type: biochemical
# T2 construct: p85(iSH2) fusion partner (see partner chain) (N); His tag (C); made in house; host or cells: baculovirus; Tn5 (Trichoplusia ni) or TiniPro insect cells
# T2 sequence (P42336 with tags, fused parts or gaps limits assumed): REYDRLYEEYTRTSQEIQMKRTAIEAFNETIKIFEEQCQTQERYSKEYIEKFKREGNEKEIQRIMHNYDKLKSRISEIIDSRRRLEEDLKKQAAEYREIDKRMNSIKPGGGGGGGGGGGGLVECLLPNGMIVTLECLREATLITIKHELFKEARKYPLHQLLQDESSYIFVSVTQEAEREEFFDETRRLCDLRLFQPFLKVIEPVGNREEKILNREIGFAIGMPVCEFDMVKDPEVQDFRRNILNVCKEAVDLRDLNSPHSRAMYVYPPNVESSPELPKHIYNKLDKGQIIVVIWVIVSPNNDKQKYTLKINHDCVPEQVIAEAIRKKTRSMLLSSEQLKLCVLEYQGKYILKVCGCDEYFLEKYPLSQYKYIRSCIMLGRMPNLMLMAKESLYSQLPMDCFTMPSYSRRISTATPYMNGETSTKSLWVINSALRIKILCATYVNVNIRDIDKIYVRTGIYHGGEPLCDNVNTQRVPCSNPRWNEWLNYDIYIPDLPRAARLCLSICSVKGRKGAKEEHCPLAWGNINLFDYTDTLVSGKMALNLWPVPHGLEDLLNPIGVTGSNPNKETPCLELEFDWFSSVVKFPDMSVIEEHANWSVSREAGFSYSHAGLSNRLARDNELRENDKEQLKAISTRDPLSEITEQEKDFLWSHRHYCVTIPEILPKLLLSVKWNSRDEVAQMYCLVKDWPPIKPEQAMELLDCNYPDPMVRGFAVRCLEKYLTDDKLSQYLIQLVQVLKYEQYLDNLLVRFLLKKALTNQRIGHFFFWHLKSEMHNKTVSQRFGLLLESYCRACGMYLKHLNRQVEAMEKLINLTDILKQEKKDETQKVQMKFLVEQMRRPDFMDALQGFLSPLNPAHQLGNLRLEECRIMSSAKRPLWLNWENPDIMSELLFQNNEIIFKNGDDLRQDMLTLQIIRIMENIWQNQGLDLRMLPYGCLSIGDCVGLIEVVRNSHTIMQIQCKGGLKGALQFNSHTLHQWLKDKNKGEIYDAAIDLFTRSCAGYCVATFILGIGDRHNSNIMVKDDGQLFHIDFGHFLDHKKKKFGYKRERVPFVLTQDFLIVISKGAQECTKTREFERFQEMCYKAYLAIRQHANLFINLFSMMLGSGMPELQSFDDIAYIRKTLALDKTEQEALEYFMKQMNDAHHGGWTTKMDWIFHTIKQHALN
# Method in brief: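 PI3Kα construct EMV B1075 (10 nM final) was preincubated with 10 μg/mL phosphatidylinositol in 10 mM Tris-HCl pH 7.5, 3 mM MgCl2, 50 mM NaCl, 0.05% CHAPS, 1 mM DTT. Reaction started with 1 μM ATP, 60 min at room temperature; remaining ATP measured by Kinase-Glo luminescence. IC50 from 4-parameter logistic fit of 8-point titrations.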
# Solubility at pH 6.8 = assay type: physicochemical; details: pH 6.8, aqueous buffer, thermodynamic from solid; read-out: solubility
# Method in brief: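 Following the procedure of Zhou et al. (2007), compound solubility was determined at pH 6.8.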
# T1 sequence (P48736 144-1102 limits assumed): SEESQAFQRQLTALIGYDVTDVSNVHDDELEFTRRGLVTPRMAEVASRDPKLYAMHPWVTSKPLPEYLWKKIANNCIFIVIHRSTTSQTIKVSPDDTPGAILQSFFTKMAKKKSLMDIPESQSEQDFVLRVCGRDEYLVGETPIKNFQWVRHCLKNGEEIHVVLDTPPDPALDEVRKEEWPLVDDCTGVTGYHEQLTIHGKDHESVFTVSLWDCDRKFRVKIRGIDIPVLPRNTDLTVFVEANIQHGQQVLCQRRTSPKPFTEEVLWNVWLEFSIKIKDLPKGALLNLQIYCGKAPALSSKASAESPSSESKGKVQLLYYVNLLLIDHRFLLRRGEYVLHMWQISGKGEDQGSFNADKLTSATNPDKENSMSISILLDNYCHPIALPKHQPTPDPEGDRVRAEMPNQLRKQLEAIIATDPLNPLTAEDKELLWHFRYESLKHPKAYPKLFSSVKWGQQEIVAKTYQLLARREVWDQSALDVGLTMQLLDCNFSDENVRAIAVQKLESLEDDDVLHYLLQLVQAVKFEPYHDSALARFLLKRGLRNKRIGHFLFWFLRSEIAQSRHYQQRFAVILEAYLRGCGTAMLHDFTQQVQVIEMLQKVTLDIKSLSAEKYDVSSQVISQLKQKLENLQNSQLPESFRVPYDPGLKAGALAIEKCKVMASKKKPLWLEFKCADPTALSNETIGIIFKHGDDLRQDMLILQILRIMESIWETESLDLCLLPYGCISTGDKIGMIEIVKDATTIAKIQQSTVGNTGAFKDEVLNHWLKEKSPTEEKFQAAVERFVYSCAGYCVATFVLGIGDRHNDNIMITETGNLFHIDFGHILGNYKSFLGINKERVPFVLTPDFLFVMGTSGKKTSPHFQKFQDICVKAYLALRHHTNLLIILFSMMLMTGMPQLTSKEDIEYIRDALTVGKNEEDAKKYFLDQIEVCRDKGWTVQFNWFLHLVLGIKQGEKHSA
Compound,IC50 (PI3K gamma) [nM],IC50 (PI3K alpha) [nM],solubility (Solubility at pH 6.8) [µg/mL]
"COc1ccc(-c2ccc3ncc4c(c3c2)n(-c2cn(C(C)C)nc2C)c(=O)n4C)cc1OC [Example 1.5, 8-(3,4-Dimethoxy-phenyl)-1-(1-isopropyl-3-methyl-1H-pyrazol-4-yl)-3-methyl-1,3-dihydro-imidazo[4,5-c]quinolin-2-one]",132,10,5
"Cc1cc(-n2c(=O)n(C)c3cnc4ccc(-c5ccc(N(C)C)nc5)cc4c32)n(C)n1 [Example 4.6, 8-(6-Dimethylamino-pyridin-3-yl)-1-(2,5-dimethyl-2H-pyrazol-3-yl)-3-methyl-1,3-dihydro-imidazo[4,5-c]quinolin-2-one]",481,48,6
"Cc1nn(C)cc1-n1c(=O)n(C)c2cnc3ccc(-c4ccc(N5CCC5)nc4)cc3c21 [Example 5.1, 8-(6-Azetidin-1-yl-pyridin-3-yl)-1-(1,3-dimethyl-1H-pyrazol-4-yl)-3-methyl-1,3-dihydro-imidazo[4,5-c]quinolin-2-one]",309,30,3
"Cc1nn(C)cc1-n1c(=O)n(C)c2cnc3ccc(-c4ccc(C(N)=O)nc4)cc3c21 [Example 14, 5-[1-(1,3-Dimethyl-1H-pyrazol-4-yl)-3-methyl-2-oxo-2,3-dihydro-1H-imidazo[4,5-c]quinolin-8-yl]-pyridine-2-carboxylic acid amide]",212,18,53
"CNC(=O)c1ccc(-c2ccc3ncc4c(c3c2)n(-c2c(C)nn(C)c2C)c(=O)n4C)cn1 [Example 15.2, 5-[3-Methyl-2-oxo-1-(1,3,5-trimethyl-1H-pyrazo1-4-yl)-2,3-dihydro-1H-imidazo[4,5-c]quinolin-8-yl]-pyridine-2-carboxylic acid methylamide]",548,249,71
"Cc1cncc(-c2ccc3ncc4c(c3c2)n(-c2cn(C)nc2C)c(=O)n4C)c1 [Example 24, 1-(1,3-Dimethyl-1H-pyrazol-4-yl)-3-methyl-8-(5-methyl-pyridin-3-yl)-1,3-dihydro-imidazo[4,5-c]quinolin-2-one]",111,10,25
"CCOc1ccc(-c2ccc3ncc4c(c3c2)n(-c2c(C)nn(C)c2C)c(=O)n4C)cc1OCC [Example 27.2, 8-(3,4-Diethoxy-phenyl)-3-methyl-1-(1,3,5-trimethyl-1H-pyrazol-4-yl)-1,3-dihydro-imidazo[4,5-c]quinolin-2-one]",137,48,4
"CCOc1ccc(-c2ccc3ncc4c(c3c2)n(-c2cn(CC)nc2C)c(=O)n4C)cc1OC [Example 29.1, 8-(4-Ethoxy-3-methoxy-phenyl)-1-(1-ethyl-3-methyl-1H-pyrazol-4-yl)-3-methyl-1,3-dihydro-imidazo[4,5-c]quinolin-2-one]",69,24,3
"Cc1nn(C)cc1-n1c(=O)n(C)c2cnc3ccc(-c4cnc5ccccc5c4)cc3c21 [Example 38, 1-(1,3-Dimethyl-1H-pyrazol-4-yl)-3-methyl-8-quinolin-3-yl-1,3-dihydro-imidazo[4,5-c]quinolin-2-one]",123,8,13
"CCOc1cc(-c2ccc3ncc4c(c3c2)n(-c2cn(C)nc2C)c(=O)n4C)cnc1CC [Example 187, 1-(1,3-Dimethyl-1H-pyrazol-4-yl)-8-(5-ethoxy-6-ethyl-pyridin-3-yl)-3-methyl-1,3-dihydro-imidazo[4,5-c]quinolin-2-one]",–,15,3
"CCc1ncc(-c2ccc3ncc4c(c3c2)n(-c2cn(C)nc2C)c(=O)n4C)cc1O [Example 188, 1-(1,3-Dimethyl-1H-pyrazol-4-yl)-8-(6-ethyl-5-hydroxy-pyridin-3-yl)-3-methyl-1,3-dihydro-imidazo[4,5-c]quinolin-2-one]",–,9,44
"CCn1cc(-n2c(=O)n(C)c3cnc4ccc(-c5cnc(COC)c(OC(C)C)c5)cc4c32)c(C)n1 [Example 191.2, 1-(1-Ethyl-3-methyl-1H-pyrazol-4-yl)-8-(5-isopropoxy-6-methoxymethyl-pyridin-3-yl)-3-methyl-1,3-dihydro-imidazo[4,5-c]quinolin-2-one]",–,13,243
"Cc1nn(C)cc1-n1c(=O)n(C)c2cnc3ccc(-c4cnc(CO)c(OC(CF)CF)c4)cc3c21 [Example 192, 1-(1,3-Dimethyl-1H-pyrazol-4-yl)-8-[5-(2-fluoro-1-fluoromethyl-ethoxy)-6-hydroxymethyl-pyridin-3-yl]-3-methyl-1,3-dihydro-imidazo[4,5-c]quinolin-2-one]",–,< 3,27
"CCOCc1ncc(-c2ccc3ncc4c(c3c2)n(-c2cn(C)nc2C)c(=O)n4C)cc1OC [Example 196.2, 1-(1,3-Dimethyl-1H-pyrazol-4-yl)-8-(6-ethoxymethyl-5-methoxy-pyridin-3-yl)-3-methyl-1,3-dihydro-imidazo[4,5-c]quinolin-2-one]",–,175,> 459
"CCOc1cc(-c2ccc3ncc4c(c3c2)n(-c2cn(C(C)C)nc2C)c(=O)n4C)cnc1COC [Example 197.2, 8-(5-Ethoxy-6-methoxymethyl-pyridin-3-yl)-1-(1-isopropyl-3-methyl-1H-pyrazol-4-yl)-3-methyl-1,3-dihydro-imidazo[4,5-c]quinolin-2-one]",–,41,225
"COCc1ccc(-c2ccc3ncc4c(c3c2)n(-c2cn(C)nc2Cl)c(=O)n4C)cn1 [Example 203, 1-(3-Chloro-1-methyl-1H-pyrazol-4-yl)-8-(6-methoxymethyl-pyridin-3-yl)-3-methyl-1,3-dihydro-imidazo[4,5-c]quinolin-2-one]",–,5,12
"CCNc1ncc(-c2ccc3ncc4c(c3c2)n(-c2cn(C)nc2C)c(=O)n4C)cc1COC [Example 206.1, 1-(1,3-Dimethyl-1H-pyrazol-4-yl)-8-(6-ethylamino-5-methoxymethyl-pyridin-3-yl)-3-methyl-1,3-dihydro-imidazo[4,5-c]quinolin-2-one]",–,26,8
"CCNc1ncc(-c2ccc3ncc4c(c3c2)n(-c2c(C)nn(C)c2C)c(=O)n4C)cc1COC [Example 206.2, 8-(6-Ethylamino-5-methoxymethyl-pyridin-3-yl)-3-methyl-1-(1,3,5-trimethyl-1H-pyrazol-4-yl)-1,3-dihydro-imidazo[4,5-c]quinolin-2-one]",–,186,> 472
"CCc1ncc(-c2ccc3ncc4c(c3c2)n(-c2cn(C)nc2C)c(=O)n4C)cc1N [Example 208, 8-(5-Amino-6-ethyl-pyridin-3-yl)-1-(1,3-dimethyl-1H-pyrazol-4-yl)-3-methyl-1,3-dihydro-imidazo[4,5-c]quinolin-2-one]",–,15,133
"CO[C@@H]1CCN(c2ccc(-c3ccc4ncc5c(c4c3)n(-c3cn(C)nc3C)c(=O)n5C)cn2)C1 [Example 213.1, 1-(1,3-Dimethyl-1H-pyrazol-4-yl)-8-[6-((R)-3-methoxy-pyrrolidin-1-yl)-pyridin-3-yl]-3-methyl-1,3-dihydro-imidazo[4,5-c]quinolin-2-one]",–,462,217
"Cn1cc(-n2c(=O)n(C)c3cnc4ccc(-c5cncc(C(C)(C)C#N)c5)cc4c32)c(Cl)n1 [Example 220.3, 2-{5-[1-(3-Chloro-1-methyl-1H-pyrazol-4-yl)-3-methyl-2-oxo-2,3-dihydro-1H-imidazo[4,5-c]quinolin-8-yl]-pyridin-3-yl}-2-methyl-propionitrile]",–,5,16
"Cc1nn(C)cc1-n1c(=O)n(C)c2cnc3ccc(-c4cncc(C5(C#N)CCC5)c4)cc3c21 [Example 221.1, 1-{5-[1-(1,3-Dimethyl-1H-pyrazol-4-yl)-3-methyl-2-oxo-2,3-dihydro-1H-imidazo[4,5-c]quinolin-8-yl]-pyridin-3-yl}-cyclobutanecarbonitrile]",–,14,21
"CCN1C(=O)OCc2ncc(-c3ccc4ncc5c(c4c3)n(-c3cn(C)nc3C)c(=O)n5C)cc21 [Example 237, 1-(1,3-Dimethyl-1H-pyrazol-4-yl)-8-(1-ethyl-2-oxo-1,4-dihydro-2H-pyrido[3,2-d][1,3]oxazin-7-yl)-3-methyl-1,3-dihydro-imidazo[4,5-c]quinolin-2-one]",–,8,14
"CCn1c(=O)n(-c2cn(C)nc2C)c2c3cc(-c4cncc(N)c4)ccc3ncc21 [Example 245, 8-(5-Amino-pyridin-3-yl)-1-(1,3-dimethyl-1H-pyrazol-4-yl)-3-ethyl-1,3-dihydro-imidazo[4,5-c]quinolin-2-one]",–,22,129
"Cc1nn(CC(=O)N2CCC2)cc1-n1c(=O)n(C)c2cnc3ccc(-c4cnc(N5CCCC5)nc4)cc3c21 [Example 247.2, 1-[1-(2-Azetidin-1-yl-2-oxo-ethyl)-3-methyl-1H-pyrazol-4-yl]-3-methyl-8-(2-pyrrolidin-1-yl-pyrimidin-5-yl)-1,3-dihydro-imidazo[4,5-c]quinolin-2-one]",–,38,56

# Reference: patent publication US20140005163A1 (NOVARTIS AG, priority 2010, published 2014)
